Measured values taken from ChEMBL document CHEMBL1146224, “Design, synthesis, and characterization of novel iron chelators: structure-activity relationships of the 2-benzoylpyridine thiosemicarbazone series and their 3-nitrobenzoyl analogues as potent antitumor agents” (J Med Chem, 2007).

Key:
[1] = Partition coefficient, log P of the compound; assay type: physicochemical; conditions: octanol/water
SK-N-MC [2] = assay: Effect on iron release in SK-N-MC cells; assay type: functional, Homo sapiens
SK-N-MC [3] = assay: cells; conditions: Homo sapiens, 72 h
Description: Antiproliferative activity against human SK-N-MC cells after 72 hrs by MTT assay

SK-N-MC [4] = assay: Inhibition of iron uptake from transferrin in SK-N-MC cells at 50 uM relative to control; assay type: functional, Homo sapiens; design: scale not given: the % may be the effect or the level left
MRC5 = assay: Antiproliferative activity against human MRC5 cells after 72 hrs by MTT assay; assay type: cell-based; conditions: MRC5, 72 h

Compound | logP [1] | Activity (SK-N-MC [2]) [%] | IC50 (SK-N-MC [3]) [nM] | Activity (SK-N-MC [4]) [%] | IC50 (MRC5) [nM]
NC(=S)N/N=C(\c1cccc([N+](=O)[O-])c1)c1ccccn1 | 1.9 | 43 | 3820 | 7 | 
CCNC(=S)N/N=C(\c1ccccc1)c1ccccn1 | 4.01 |  | 2 |  | > 6250
S=C(N/N=C(\c1ccccc1)c1ccccn1)Nc1ccccc1 | 1.92 |  | 5 |  | 1860
CCNC(=S)N/N=C(\c1cccc([N+](=O)[O-])c1)c1ccccn1 | 2.53 |  | 14 |  | 2310
CNC(=S)N/N=C(\c1ccccc1)c1ccccn1 | 0.74 |  | 4 |  | > 6250
CC(=O)N(O)CCCCCNC(=O)CCC(=O)N(O)CCCCCNC(=O)CCC(=O)N(O)CCCCCN [DEFEROXAMINE] |  | 7 | 4510 |  | 
C=CCNC(=S)N/N=C(\c1ccccc1)c1ccccn1 | 2.69 |  | 4 |  | > 6250
C=CCNC(=S)N/N=C(\c1cccc([N+](=O)[O-])c1)c1ccccn1 | 1.7 |  | 13 | 11 | 2390
CN(C)C(=S)NN=C(c1ccccn1)c1ccccn1 |  |  | 1 |  | 
CN(C)C(=S)N/N=C(\c1ccccc1)c1ccccn1 | 1.29 |  | 4 |  | > 6250
CNC(=S)N/N=C(\c1cccc([N+](=O)[O-])c1)c1ccccn1 | 2.14 |  | 130 | 8 | 
Cc1ncc(CO)c(/C=N/NC(=O)c2ccncc2)c1O [PYRIDOXAL ISONICOTINOYL HYDRAZONE] |  |  |  | 21 | 
NC(=S)N/N=C(\c1ccccc1)c1ccccn1 | 1.92 | 23 | 4660 |  | 
O=C(N/N=C/c1c(O)ccc2ccccc12)c1ccncc1 |  |  | 710 | 9 | 
NC(=S)N/N=C/c1ncccc1N [TRIAPINE] |  |  | 260 |  | 
